Results as given in patent EP0466548A1, “1,2,3,4,5,6-Hexahydroazepino[4,5-b]indole and 1,2,3,4-tetrahydro-beta-carbolines, processes for their preparation, and pharmaceutical compositions containing them” (ADIR ET COMPAGNIE, priority 1990, dated 1992).

Assays:
rat = assay: Anxiolytic activity: elevated plus maze; type: in vivo; conditions: 60 min before test; for nb total d'entrées: 5 min test, control 14 ± 2; for % du temps passé dans le bras ouvert: control 22 % ± 5 %; for % d'entrées dans le bras ouvert: control 28 % ± 5 %
Procedure: Le potentiel anxiolytique de ces produits a été recherché selon le test "elevated plus maze".
Ce test permet d'étudier le comportement du rat, traité ou non, dans une situation de choix entre un espace clos rassurant ("bras clos") et un espace ouvert générateur d'anxiété ("bras ouvert").
Le test consiste à compter le nombre d'entrées dans chaque bras du labyrinthe durant 5 minutes et à mesurer le temps passé dans le "bras ouvert".
Les rats sont randomisés en lots de 8 et reçoivent les produits à tester par administration intrapéritonéale 60 minutes avant le début du test.

souris = assay: Analgesic activity: Acetic Acid Writhing test; type: in vivo; conditions: 50 mg/Kg intraperitoneal, 30 min before 0,3 cm³ acetic acid 1% i.p.; control 23 ± 14
Procedure: Le potentiel analgésique de ces produits a été recherché selon le test dit "Acetic Acid Writhing" qui est basé sur le comptage des crampes abdominales induites chez la souris par injection intra péritonéale d'acide acétique (GAIRIN et Coll J. Pharmacol. Exp. Ther 245, 955 (1988))
Les souris randomisées en lots de 10 reçoivent les produits à tester par voie intra péritonéale 30 minutes avant l'administration intra péritonéale de 0,3 cm³ d'acide acétique à 1%
Le nombre de crampes est compté entre la 5ème et 20ème minutes après l'injection d'acide acétique.

[1] = system: rats mâles, Sprague Dawley; assay: Anti-inflammatory activity: carrageenan-induced paw oedema (plethysmography); type: in vivo, rat; conditions: 30 to 60 min before carrageenan, paw volume 3 h after carrageenan
Procedure: Le potentiel antiinflammatoire des composés a été recherché selon un modèle d'inflammation aigue provoquée par injection sous cutanée de carragénine au niveau de la patte postérieure du rat selon une technique inspirée de WINTER et coll. […] J. Phamacol.
Les rats mâles, Sprague Dawley de 200 à 300 g sont randomisés en lots de 10 et reçoivent les substances à tester par administration intra péritonéale 30 à 60 minutes avant l'injection locale au niveau de la patte arrière gauche de 0,1 ml d'une suspension à 0,5 % de Carragénine dans du sérum physiologique stérile.
La patte arrière droite servant de témoin, reçoit une injection de sérum physiologique.
Trois heures après l'injection de la Carragénine, les animaux sont anesthésiés de façon profonde au Narcorem R et le volume des deux pattes arrières mesuré par Pléthysmographie
Les résultats sont exprimés en pourcentage de variation de volume v% : v% =(volume patte gauche - volume patte droite)/(volume patte droite) [formula] l'activité antiinflammatoire AAI% est définie par : [drawing 54]

SMILES	nb total d'entrées (rat; 50 mg/Kg IP)	% du temps passé dans le bras ouvert (rat; 50 mg/Kg IP)	% d'entrées dans le bras ouvert (rat; 50 mg/Kg IP)	Nombre de crampes par minute (entre la 5ème et la 20ème minutes) (souris)	AAI% ([1]; 50 mg/Kg intraperitoneal) [%]	nb total d'entrées (rat; 100mg/Kg IP)	% du temps passé dans le bras ouvert (rat; 100mg/Kg IP)	% d'entrées dans le bras ouvert (rat; 100mg/Kg IP)	AAI% ([1]; 25 mg/Kg intraperitoneal) [%]
COC(=O)[C@@H]1Cc2c([nH]c3ccccc23)C2(CCCCC2)N1 [[ 3-METHOXYCARBONYLE 1,2,3,4-TETRAHYDRO-β-CARBOLINE (3 S)]-1-SPIRO-CYCLOHEXANE]	18 ± 2	40 % ± 6%	42 % ± 4%	1 ± 1	14				
COC(=O)[C@@H]1Cc2c([nH]c3ccccc23)C2(CCN(C)CC2)N1 [[ 3-METHOXYCARBONYLE 1,2,3,4-TETRAHYDRO-β-CARBOLINE (3 S)]-1-SPIRO-4′- [ 1-METHYL PIPERIDINE]]						18 ± 1	41 % ± 4%	44 % ± 3%	14
